In experiment [1] the target is T1, FXR (Homo sapiens, UniProt Q96RI1).
T1 construct: expressed in transfected cells; host or cells: CV-1 cells
T1 sequence (Q96RI1 1-486): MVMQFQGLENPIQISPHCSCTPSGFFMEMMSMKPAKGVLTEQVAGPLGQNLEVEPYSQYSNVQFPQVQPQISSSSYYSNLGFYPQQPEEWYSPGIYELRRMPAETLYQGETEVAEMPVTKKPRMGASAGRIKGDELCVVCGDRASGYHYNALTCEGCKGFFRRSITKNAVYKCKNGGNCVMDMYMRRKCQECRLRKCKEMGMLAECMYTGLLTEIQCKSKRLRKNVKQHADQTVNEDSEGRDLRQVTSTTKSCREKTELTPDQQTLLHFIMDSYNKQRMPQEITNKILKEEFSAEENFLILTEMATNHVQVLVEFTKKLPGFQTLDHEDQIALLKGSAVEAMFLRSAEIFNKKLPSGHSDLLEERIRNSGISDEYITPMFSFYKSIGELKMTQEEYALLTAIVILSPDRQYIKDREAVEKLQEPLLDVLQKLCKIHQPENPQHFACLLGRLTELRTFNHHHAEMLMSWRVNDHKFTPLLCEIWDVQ
T1 sequence (P19793 1-462 partner): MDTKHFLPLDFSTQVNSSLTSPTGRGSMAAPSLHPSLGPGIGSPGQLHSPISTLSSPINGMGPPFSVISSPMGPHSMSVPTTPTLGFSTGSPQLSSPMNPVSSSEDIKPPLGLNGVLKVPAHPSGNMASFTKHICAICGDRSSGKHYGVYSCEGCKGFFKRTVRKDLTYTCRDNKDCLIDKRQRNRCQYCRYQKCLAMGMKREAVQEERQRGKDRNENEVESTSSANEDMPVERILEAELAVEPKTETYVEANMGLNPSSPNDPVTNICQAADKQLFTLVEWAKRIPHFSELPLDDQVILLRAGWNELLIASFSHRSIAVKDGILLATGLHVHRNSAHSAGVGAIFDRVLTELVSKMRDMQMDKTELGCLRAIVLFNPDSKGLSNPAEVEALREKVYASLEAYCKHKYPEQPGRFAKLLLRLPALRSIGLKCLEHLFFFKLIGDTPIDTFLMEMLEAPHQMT
Briefly: In Vitro FXR Assay (PGL3): luciferase reporter in transfected CV-1 cells. The class given is cell-based. The note with it: CV-1 cells transfected with hFXR, hRXR, PGL3-ECRE*6-luc; 18 h incubation; luminescence. In outline: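 CV-1 cells in charcoal-stripped FBS were transiently co-transfected with full-length human FXR, RXR, an ECRE×6-luciferase reporter, β-gal and YFP plasmids. Transfected cells were reseeded onto half-log compound dilutions and incubated 18 h. Luciferase luminescence was read after lysis, and EC50 was determined.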
Background: A reporter such as luciferase makes a cellular process visible.

The target in experiment [2] is T1, FXR. Briefly: In Vitro FXR Assay (TK): TK-ECRE-luc reporter in transfected CV-1 cells. In kind it is cell-based. To be noted: CV-1 cells transfected with hFXR, hRXR, 18 h incubation, luminescence. An outline of the steps:
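CV-1 cells in charcoal-stripped FBS medium were transiently cotransfected with hFXR, hRXR, TK-ECRE-luc and pCMX-YFP plasmids. After 18 h, compounds serially diluted in DMSO were added for 18 h at 37 °C, 5% CO2, then cells were lysed and luminescence read.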

In the case of `COC(=O)/C=C/c1cccc(N(Cc2ccc(-c3ccccc3C#N)cc2)C(=O)C2CCCCC2)c1` [compound 66, (E)-Methyl 3-(3-(N-((2′-cyano-[1,1′-biphenyl]-4-yl)methyl)cyclohexanecarboxamido)phenyl) acrylate], the “Cmpd/Fex (ratio of the EC50 for the test compound relative to the EC50 of the Fexaramine control)” value in experiment [1] was “+ (‘+’ means Cmpd/Fex > 100)”. The compound further showed an EC50 in experiment [2] of 1000 to 10000 nM.
Turning to `COC(=O)/C=C/c1cccc(N(Cc2ccc(-c3ccc(N(C)C)cc3)cc2)C(=O)[C@H]2CC[C@@H](O)CC2)c1` [compound 18, cis-(E)-Methyl 3-(3-(N-((4′-(dimethylamino)-[1,1′-biphenyl]-4-yl)methyl)-4-hydroxycyclohexanecarboxamido)phenyl)acrylate], the “Cmpd/Fex (ratio of the EC50 for the test compound relative to the EC50 of the Fexaramine control)” value in experiment [1] is listed as “+++ (‘+++’ means Cmpd/Fex < 10)”. Also, the concentration for a half-maximal effect (EC50) in experiment [2] was not above 1000 nM.
The like results for `COC(=O)/C=C(\C)c1cccc(N(Cc2ccc(-c3ccc(N(C)C)cc3)cc2)C(=O)C2CCCCC2)c1` [compound 45, (E)-Methyl 3-(3-(N-((4′-(dimethylamino)-[1,1′-biphenyl]-4-yl)methyl)cyclohexanecarboxamido)phenyl)but-2-enoate] were, in that order, “+++ (‘+++’ means Cmpd/Fex < 10)” and 1000 to 10000 nM.
The like results for `COC(=O)/C=C/c1cc(C)cc(N(Cc2ccc(-c3ccc(N(C)C)cc3)cc2)C(=O)C2CCCCC2)c1` [compound 39, (E)-Methyl 3-(3-(N-((4′-(dimethylamino)-[1,1′-biphenyl]-4-yl)methyl)cyclohexanecarboxamido)-5-methylphenyl)acrylate] were, in that order, “+++ (‘+++’ means Cmpd/Fex < 10)” and 1000 to 10000 nM.
The matching figures for `COC(=O)/C=C/c1cccc(N(Cc2ccc(-c3ccccn3)cc2)C(=O)C2CCCCC2)c1` [compound 65, (E)-Methyl 3-(3-(N-(4-(pyridin-2-yl)benzyl)cyclohexanecarboxamido)phenyl) acrylate]: “+ (‘+’ means Cmpd/Fex > 100)” and 1000 to 10000 nM.
`COC(=O)CCc1cc(N(Cc2ccc(-c3ccc(N(C)C)cc3)cc2)C(=O)C2CCCCC2)ccc1C` [compound 91, Methyl 3-(5-(N-((4′-(dimethylamino)-[1,1′-biphenyl]-4-yl)methyl)cyclohexanecarboxamido)-2-methylphenyl)propanoate]: the “Cmpd/Fex (ratio of the EC50 for the test compound relative to the EC50 of the Fexaramine control)” value in experiment [1] is “+ (‘+’ means Cmpd/Fex > 100)”. The compound further returned a concentration for a half-maximal effect (EC50) in experiment [2] of more than 10000 nM.
The like results for `COC(=O)/C=C/c1cccc(N(Cc2ccc(-c3ccc(Cl)cc3)cc2)C(=O)C2CCCCC2)c1` [compound 34, (E)-Methyl 3-(3-(N-((4′-chloro-[1,1′-biphenyl]-4-yl)methyl)cyclohexanecarboxamido)phenyl)acrylate] were, in that order, “+++ (‘+++’ means Cmpd/Fex < 10)” and 1000 to 10000 nM.
The like results for `COC(=O)/C=C/c1cccc(N(Cc2ccc(-c3ccncc3)cc2)C(=O)C2CCCCC2)c1` [compound 22, (E)-Methyl 3-(3-(N-(4-(pyridin-4-yl)benzyl)cyclohexanecarboxamido)phenyl) acrylate] were, in that order, “+ (‘+’ means Cmpd/Fex > 100)” and 1000 to 10000 nM.
The matching figures for `COC(=O)/C=C/c1cccc(N(Cc2ccc(-c3ccc4[nH]ncc4c3)cc2)C(=O)C2CCCCC2)c1` [compound 49, (E)-Methyl 3-(3-(N-(4-(1H-indazol-5-yl)benzyl)cyclohexanecarboxamido)phenyl) acrylate]: “+ (‘+’ means Cmpd/Fex > 100)” and 1000 to 10000 nM.
Take `CC(C)OC(=O)/C=C/c1cccc(N(Cc2ccc(-c3ccc(N(C)C)cc3)cc2)C(=O)C2CCCCC2)c1` [compound 83, (E)-iso-Propyl 3-(3-(N-((4′-(dimethylamino)-[1,1′-biphenyl]-4-yl)methyl)cyclohexanecarboxamido)phenyl) acrylate]: the “Cmpd/Fex (ratio of the EC50 for the test compound relative to the EC50 of the Fexaramine control)” value in experiment [1] was “+++ (‘+++’ means Cmpd/Fex < 10)”. Besides, in experiment [2], the EC50 is 1000 to 10000 nM.
As for `COC(=O)CCc1cccc(N(Cc2ccc(-c3ccc(N(C)C)cc3)cc2)C(=O)C2CCCCC2)c1` [compound 43, Methyl 3-(3-(N-((4′-(dimethylamino)-[1,1′-biphenyl]-4-yl)methyl)cyclohexanecarboxamido)phenyl) propanoate], the “Cmpd/Fex (ratio of the EC50 for the test compound relative to the EC50 of the Fexaramine control)” value in experiment [1] is “++ (‘++’ means Cmpd/Fex > 10 & < 100)”. The same compound gave an EC50 in experiment [2] of 1000 to 10000 nM.
The matching figures for `COC(=O)/C=C/c1cccc(N(Cc2ccc(-c3ccc(N(C)C)c(OC)c3)cc2)C(=O)C2CCCCC2)c1` [compound 75, (E)-methyl 3-(3-(N-((4′-(dimethylamino)-3′-methoxy-[1,1′-biphenyl]-4-yl)methyl)cyclohexanecarboxamido)phenyl) acrylate]: “++ (‘++’ means Cmpd/Fex > 10 & < 100)” and 1000 to 10000 nM.
The matching figures for `COC(=O)/C=C/c1cccc(N(Cc2ccc(-c3ccc(N(C)C)c(C#N)c3)cc2)C(=O)C2CCCCC2)c1` [compound 72, (E)-Methyl 3-(3-(N-((3′-cyano-4′-(dimethylamino)-[1,1′-biphenyl]-4-yl)methyl)cyclohexanecarboxamido)phenyl) acrylate]: “+++ (‘+++’ means Cmpd/Fex < 10)” and not above 1000 nM.
The like results for `COC(=O)/C=C/c1cccc(N(Cc2ccc(-c3ccc4c(ccn4C)c3)cc2)C(=O)C2CCCCC2)c1` [compound 62, (E)-Methyl 3-(3-(N-(4-(1-methyl-1H-indol-5-yl)benzyl)cyclohexanecarboxamido)phenyl) acrylate] were, in that order, “+++ (‘+++’ means Cmpd/Fex < 10)” and not above 1000 nM.
Take `COC(=O)/C=C/c1cccc(N(Cc2ccc(-c3ccc(N(C)C)cc3)cc2C)C(=O)C2CCCCC2)c1` [compound 54, (E)-Methyl 3-(3-(N-((4′-(dimethylamino)-3-methyl-[1,1′-biphenyl]-4-yl)methyl)cyclohexanecarboxamido)phenyl) acrylate]: the “Cmpd/Fex (ratio of the EC50 for the test compound relative to the EC50 of the Fexaramine control)” value in experiment [1] is “+++ (‘+++’ means Cmpd/Fex < 10)”. This compound gave an EC50 in experiment [2] not above 1000 nM.
The matching figures for `CN(C)c1ccc(-c2ccc(CN(C(=O)C3CCCCC3)c3cccc(/C=C/C(=O)O)c3)cc2)cc1` [compound 88, (E)-3-(3-(N-((4′-(dimethylamino)-[1,1′-biphenyl]-4-yl)methyl)cyclohexanecarboxamido)phenyl)acrylic acid]: “+ (‘+’ means Cmpd/Fex > 100)” and more than 10000 nM.
The like results for `COC(=O)CCc1cccc(N(Cc2ccc(-c3ccc(N(C)C)cc3)cc2)C(=O)C2CCCCC2)c1C` [compound 92, Methyl 3-(3-(N-((4′-(dimethylamino)-[1,1′-biphenyl]-4-yl)methyl)cyclohexanecarboxamido)-2-methylphenyl)propanoate] were, in that order, “+ (‘+’ means Cmpd/Fex > 100)” and 1000 to 10000 nM.

One may read the EC50 as the concentration at which the effect is half-maximal.

The values are drawn from patent publication US10626081B2, “Farnesoid X receptor agonists and uses thereof” (Metacrine, Inc., priority 2015, dated 2020).
